From PubChem BioAssay (NCI) come the findings set out here.

Values joined by “and” are separate entries in the source; they are usually repeats but may differ in a detail not shown here. Equal entries are not always repeated.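 Where inhibition never reached the appropriate level, the endpoint shown equals the highest concentration tested. Otherwise, values were interpolated linearly from a five-concentration, 48-hour dose response in 96-well plates. At the GI50, growth is halved. The concentration for full growth arrest is given as TGI.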 *1 amine or outer side, *2 acyl side, *3 side chain or, on linkers, in order; H or OH if unused. Where a SMILES comes first, the peptide text is derived from it. Bridges are numbered along the chain shown (N, C = ends). [ ]: non-standard residue; d: D form. ξ: configuration not given here. X4 = CCC(C)C(N[*:1])C(O)CC(=O)O[C@H](C(=O)C(C)C(=O)[*:2])C(C)C; NMeY = CN[C@@H](Cc1ccc(O)cc1)C(=O)O; X9 = O=C([C@@H]1CC(O)CN1[*:1])[*:2]; ξNMeL = CNC(CC(C)C)C(=O)O; ξT = CC(O)C(N)C(=O)O

Test systems include UO-31 renal; OVCAR-5 ovarian; CCRF-CEM leukemia; COLO 205 colon; TK-10 renal; HOP-92 NSCLC; LOX IMVI melanoma; SK-OV-3 ovarian.
Common to all, as to experiment: NCI tumour cell line growth inhibition, 48 h

`CC1C(=O)N=C2C(=CN(Cc3ccccc3)c3ccccc32)C(=O)N1C` (stereo not drawn): the TGI in the assay on UO-31 renal, in the assay on OVCAR-5 ovarian, in the assay on CCRF-CEM leukemia, in the assay with COLO 205 colon, in the assay on TK-10 renal and in the assay on HOP-92 NSCLC was greater than 100 µM in each case.

With `COc1cc(C)cc2c1OC(c1ccccc1)CC2=O` (stereo not drawn), the GI50 in the assay on UO-31 renal, with OVCAR-5 ovarian, with CCRF-CEM leukemia, in the assay on COLO 205 colon, in the assay with LOX IMVI melanoma and with SK-OV-3 ovarian was greater than 100 µM each time. Moreover, the GI50 in the assay with TK-10 renal was greater than 100 µM. Besides, the TGI with UO-31 renal, in the assay with OVCAR-5 ovarian, in the assay on CCRF-CEM leukemia, in the assay on COLO 205 colon, with LOX IMVI melanoma and in the assay with SK-OV-3 ovarian was greater than 100 µM each time. This compound also yielded a TGI in the assay on TK-10 renal greater than 100 µM.

As to `COc1ccc(Cl)cc1N1C(=O)C(Cl)=C(Nc2cccc(O)c2)C1=O`, the GI50 is 13.2 µM in the assay with UO-31 renal; 28.7 µM in the assay on OVCAR-5 ovarian; 14.5 µM in the assay with CCRF-CEM leukemia; 21.6 µM in the assay with COLO 205 colon; 15.8 µM in the assay with LOX IMVI melanoma; 34.2 µM in the assay with SK-OV-3 ovarian. Besides, the GI50 in the assay with TK-10 renal was 11.3 µM. In addition, the TGI is 26.6 µM with UO-31 renal; 94.4 µM in the assay with OVCAR-5 ovarian; 43.8 µM with CCRF-CEM leukemia; 57.1 µM in the assay with COLO 205 colon; 32.8 µM with LOX IMVI melanoma; greater than 100 µM in the assay on SK-OV-3 ovarian. Also, the TGI with TK-10 renal was 31.9 µM.

For `COc1n[n+]([O-])c(C)cc1[N+](=O)[O-]`, the GI50 with UO-31 renal was 12.6 µM; with OVCAR-5 ovarian, 19.6 µM; in the assay with LOX IMVI melanoma, 12.7 µM; in the assay with TK-10 renal, 2.42 µM; with HOP-92 NSCLC it was 16.2 µM. Moreover, the TGI in the assay with UO-31 renal came to 25.4 µM; with OVCAR-5 ovarian, 35.9 µM; in the assay with LOX IMVI melanoma it was 36 µM; in the assay with TK-10 renal, 10.2 µM; with HOP-92 NSCLC, 35.2 µM.

Regarding `COc1ccc2c(c1)[nH]c(=O)c1c3cccnc3cn21`, the GI50 in the assay on UO-31 renal was 0.0797 µM; with OVCAR-5 ovarian, 0.205 µM; with CCRF-CEM leukemia, 0.0437 µM; with COLO 205 colon it was 0.0359 µM; in the assay with LOX IMVI melanoma it was 0.0679 µM; in the assay with SK-OV-3 ovarian it was 0.0464 µM. For the same compound, in the assay with TK-10 renal, the GI50 was 0.056 µM. Further, the TGI with UO-31 renal was 14.6 µM; with OVCAR-5 ovarian, greater than 100 µM; with CCRF-CEM leukemia, greater than 100 µM; in the assay with COLO 205 colon, 0.146 µM; in the assay with LOX IMVI melanoma, 14 µM; in the assay with SK-OV-3 ovarian, greater than 52 µM. The same compound showed a TGI in the assay with TK-10 renal of 18.8 µM.

For `COc1ccc(-c2ccc(/C=N/n3cn[nH]c3=S)o2)c([N+](=O)[O-])c1`, the GI50 was 54.4 µM with UO-31 renal; 97.1 µM with OVCAR-5 ovarian; 26.1 µM in the assay on CCRF-CEM leukemia; 45.6 µM with COLO 205 colon; 45.5 µM with SK-OV-3 ovarian; 18 µM with TK-10 renal. In addition, the TGI in the assay with UO-31 renal was greater than 100 µM; in the assay with OVCAR-5 ovarian, greater than 100 µM; in the assay with CCRF-CEM leukemia it was 75.3 µM; in the assay with COLO 205 colon it was greater than 100 µM; with SK-OV-3 ovarian it was greater than 100 µM; with TK-10 renal it was 86.6 µM.

Consider `CCOC(=O)C1CCC/C1=N\N=C(N)N` (stereo not drawn) (tested in a mixture with another compound), for which the TGI in the assay on UO-31 renal, in the assay with OVCAR-5 ovarian, in the assay on CCRF-CEM leukemia, with COLO 205 colon, with LOX IMVI melanoma and in the assay on SK-OV-3 ovarian was greater than 100 µM in each case. In the assay on TK-10 renal, this compound returned a TGI greater than 100 µM.

In the case of `Clc1nc(Cl)c2ncn(C/C=C\Cn3cnc4c(Cl)nc(Cl)nc43)c2n1`, the GI50 in the assay on UO-31 renal was 3.38 µM; with OVCAR-5 ovarian it was 5.52 µM; in the assay with CCRF-CEM leukemia it was 0.739 µM; in the assay on COLO 205 colon, 2.09 µM; in the assay on LOX IMVI melanoma it was 1.8 µM; in the assay with SK-OV-3 ovarian, 7.03 µM. For the same compound, the GI50 with TK-10 renal is 3.83 µM. The TGI with UO-31 renal is 10.3 µM; in the assay with OVCAR-5 ovarian, 18.4 µM; with CCRF-CEM leukemia, 2.36 µM; in the assay with COLO 205 colon, 4.82 µM; in the assay on LOX IMVI melanoma, 3.48 µM; with SK-OV-3 ovarian, 20.3 µM. The TGI in the assay with TK-10 renal was 13.5 µM.

Turning to `Cn1c2ccccc2c2c(=O)n(CCCC(=O)NCC(=O)OC(=NC3CCCCC3)NC3CCCCC3)c3c(-c4ccccc4)nnn3c21`, the GI50 is 31.3 µM with UO-31 renal; 15.3 µM in the assay on OVCAR-5 ovarian; 8.36 µM in the assay on CCRF-CEM leukemia; 2.81 µM in the assay with COLO 205 colon; 13.1 µM in the assay with LOX IMVI melanoma; greater than 100 µM in the assay with TK-10 renal. Also, the TGI in the assay on UO-31 renal is greater than 100 µM; with OVCAR-5 ovarian it was 32.5 µM; with CCRF-CEM leukemia, 57.7 µM; in the assay on COLO 205 colon, greater than 100 µM; in the assay with LOX IMVI melanoma, 97.3 µM; with TK-10 renal, greater than 100 µM.

Regarding `CC1(C)CCSC(/C=C/c2ccccc2)=N1`, the TGI is 36.4 µM with OVCAR-5 ovarian; greater than 100 µM in the assay on CCRF-CEM leukemia; 27.8 µM in the assay on LOX IMVI melanoma; greater than 100 µM in the assay on SK-OV-3 ovarian; 32.6 µM in the assay with TK-10 renal; 35.9 µM in the assay on HOP-92 NSCLC.

With `O=c1c2cc(Br)ccc2oc2ccc(Br)cc12`, the TGI in the assay on UO-31 renal, with OVCAR-5 ovarian, in the assay on CCRF-CEM leukemia, with COLO 205 colon, in the assay with TK-10 renal and with HOP-92 NSCLC was greater than 100 µM each time.

As to `OCCN(CO)CN(CN(CO)CCO)c1nc(N(CN(CO)CCO)CN(CO)CCO)nc(N(CN(CO)CCO)CN(CO)CCO)n1`, the GI50 with OVCAR-5 ovarian was 2.02 ng/mL; with CCRF-CEM leukemia, 0.55 ng/mL; in the assay with SK-OV-3 ovarian, 1.26 ng/mL; with HOP-92 NSCLC, 1.56 ng/mL. Further, the TGI in the assay on OVCAR-5 ovarian worked out at 0.0768 µg/mL; with CCRF-CEM leukemia, 2.52 ng/mL; in the assay with SK-OV-3 ovarian it was 4.21 ng/mL; with HOP-92 NSCLC, 3.6 ng/mL.

For `CCCCCCn1c(-c2ccc(C(=O)O/N=C(\N)c3ccc(OC)cc3)cc2)nc(-c2ccccc2)c1-c1ccccc1`, the GI50 in the assay on UO-31 renal was 0.413 µM; in the assay on CCRF-CEM leukemia, 0.506 µM; in the assay with LOX IMVI melanoma it was 0.186 µM; with SK-OV-3 ovarian it was 4.45 µM; in the assay with TK-10 renal, 1.72 µM; with HOP-92 NSCLC, 1.12 µM. Besides, the TGI in the assay on UO-31 renal was 1.48 µM; in the assay with CCRF-CEM leukemia it was 2.85 µM; in the assay on LOX IMVI melanoma it was 0.341 µM; in the assay with SK-OV-3 ovarian it was greater than 100 µM; with TK-10 renal it was 3.31 µM; with HOP-92 NSCLC it was 2.61 µM.

On to `CCC(C)C1NC(=O)C(NC(=O)C(CC(C)C)N(C)C(=O)[C@@H]2CC(O)CN2)C(C)OC(=O)[C@H](Cc2ccc(OC)cc2)N(C)C(=O)[C@@H]2CCCN2C(=O)[C@H](CC(C)C)NC(=O)C(C)C(=O)[C@H](C(C)C)OC(=O)CC1O` (stereo partly drawn) (H-[X9][ξNMeL][ξT][X4]LP[NMeY](Me); ester 3-C), for which the GI50 is 0.711 µM in the assay with UO-31 renal, 0.365 µM in the assay on OVCAR-5 ovarian and 0.0873 µM in the assay with TK-10 renal. Besides, the TGI with UO-31 renal is 0.954 µM and 7.18 µM; in the assay on OVCAR-5 ovarian it was 0.559 µM and 1.49 µM; with COLO 205 colon it was 0.0156 µM; in the assay with LOX IMVI melanoma, 0.0294 µM and 0.101 µM; in the assay on SK-OV-3 ovarian it was 0.349 µM and 0.0464 µM; in the assay with TK-10 renal, 1.25 µM and 7.31 µM. In the assay with HOP-92 NSCLC, the TGI was 0.242 µM and 0.0658 µM.

Take `C#Cc1cccc(NC(=O)Nc2ccc(NC(=O)CCl)cc2)c1`: the GI50 is 12.2 µM with UO-31 renal; 14.3 µM in the assay with OVCAR-5 ovarian; 9.55 µM in the assay on CCRF-CEM leukemia; 20.5 µM with COLO 205 colon; 1.57 µM with LOX IMVI melanoma; 15.5 µM with SK-OV-3 ovarian. For the same compound, the GI50 in the assay on TK-10 renal is 21.8 µM. Further, the TGI in the assay on UO-31 renal amounted to 23.3 µM; in the assay on OVCAR-5 ovarian, 28.2 µM; with CCRF-CEM leukemia it was 26.9 µM; in the assay on COLO 205 colon it was 60.3 µM; with LOX IMVI melanoma, 3.19 µM; in the assay with SK-OV-3 ovarian, 33 µM. Besides, in the assay with TK-10 renal, the TGI is greater than 82.5 µM.

For the compound `Nc1cc(N)c2nc(-c3ccccc3)c(Nc3ccc(F)cc3)nc2c1`, the GI50 in the assay on UO-31 renal was 16.9 µM; in the assay on OVCAR-5 ovarian, 38.4 µM; in the assay on COLO 205 colon it was 20.3 µM; in the assay on LOX IMVI melanoma, 4.81 µM; with SK-OV-3 ovarian it was 40.7 µM; in the assay with TK-10 renal, 17.3 µM. Further, the GI50 in the assay on HOP-92 NSCLC was 13.1 µM. Also, the TGI in the assay with UO-31 renal is 61.4 µM; in the assay with OVCAR-5 ovarian, greater than 100 µM; in the assay with COLO 205 colon, 55.9 µM; in the assay with LOX IMVI melanoma, 18 µM; with SK-OV-3 ovarian it was greater than 100 µM; in the assay on TK-10 renal, 35.6 µM. The same compound returned a TGI with HOP-92 NSCLC of 43.6 µM.

As for `CCCCCCCCCCCCCCCCC(C(=O)O)C(O)(CC(=O)O)C(=O)O` (stereo not drawn), the TGI in the assay with UO-31 renal worked out at 45.4 µM; with OVCAR-5 ovarian, 35.1 µM; with CCRF-CEM leukemia, 79.2 µM; with COLO 205 colon, 35 µM; in the assay with LOX IMVI melanoma, 66.3 µM; in the assay on SK-OV-3 ovarian, 36.1 µM. In the assay on TK-10 renal, this compound registered a TGI greater than 100 µM.

As for `Cc1cccc(C(C)O)n1` (stereo not drawn), the TGI in the assay on UO-31 renal, with OVCAR-5 ovarian, in the assay with CCRF-CEM leukemia, in the assay on COLO 205 colon, in the assay with SK-OV-3 ovarian and in the assay on TK-10 renal was greater than 100 µM in each case.

For the compound `CC1CCC2(OC1)OC1CC3C4CC=C5CC(OC6OC(CO)C(OC7OC(C)C(OC8OC(C)C(O)C(O)C8O)C(O)C7O)C(O)C6OC6OC(C)C(O)C(O)C6O)CCC5(C)C4CCC3(C)C1C2C` (stereo not drawn), the TGI was 1.67 µM in the assay with UO-31 renal; 2.39 µM in the assay on OVCAR-5 ovarian; 3.06 µM with COLO 205 colon; 0.733 µM in the assay on LOX IMVI melanoma; 2.31 µM with SK-OV-3 ovarian; 2.68 µM in the assay on TK-10 renal. The same compound came in with a TGI with HOP-92 NSCLC of 1.9 µM.
